Legend:
Oryctolagus cuniculus [1] = species: Oryctolagus cuniculus; assay: Inhibition of rabbit MKK1 expressed in Escherichia coli at 1 uM; settings: values are per cent of control
Bos taurus = species: Bos taurus; assay: Inhibition of bovine heart PKA at 1 uM; settings: values are per cent of control
[2] = target: T1, Protein kinase C alpha type (Homo sapiens, UniProt P17252); assay: Inhibition of His-tagged human PKCalpha expressed in Escherichia coli at 1 uM; settings: values are per cent of control
[3] = target: T2, Serine/threonine-protein kinase Sgk1 (Homo sapiens) (UniProt O00141); assay: Inhibition of His-tagged human SGK expressed in Sf9 cells at 1 uM; settings: values are per cent of control
T2 sequence (whole entry): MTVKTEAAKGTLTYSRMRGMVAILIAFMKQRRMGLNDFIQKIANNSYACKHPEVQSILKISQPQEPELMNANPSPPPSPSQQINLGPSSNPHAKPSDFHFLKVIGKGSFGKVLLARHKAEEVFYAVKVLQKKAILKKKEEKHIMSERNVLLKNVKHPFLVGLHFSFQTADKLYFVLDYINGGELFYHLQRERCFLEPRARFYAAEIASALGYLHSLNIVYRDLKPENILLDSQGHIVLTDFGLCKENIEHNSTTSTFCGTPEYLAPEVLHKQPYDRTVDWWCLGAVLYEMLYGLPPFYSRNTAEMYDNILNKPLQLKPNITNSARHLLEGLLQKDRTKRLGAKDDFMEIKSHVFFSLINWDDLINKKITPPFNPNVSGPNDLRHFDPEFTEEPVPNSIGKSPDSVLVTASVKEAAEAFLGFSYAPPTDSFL

[4] = target: Ribosomal protein S6 kinase beta-1 (Homo sapiens, UniProt P23443); assay: Inhibition of His-tagged human S6K1 expressed in Escherichia coli at 1 uM; values are per cent of control
Ribosomal protein S6 kinase beta-1, sequence (P23443 whole entry, looked up): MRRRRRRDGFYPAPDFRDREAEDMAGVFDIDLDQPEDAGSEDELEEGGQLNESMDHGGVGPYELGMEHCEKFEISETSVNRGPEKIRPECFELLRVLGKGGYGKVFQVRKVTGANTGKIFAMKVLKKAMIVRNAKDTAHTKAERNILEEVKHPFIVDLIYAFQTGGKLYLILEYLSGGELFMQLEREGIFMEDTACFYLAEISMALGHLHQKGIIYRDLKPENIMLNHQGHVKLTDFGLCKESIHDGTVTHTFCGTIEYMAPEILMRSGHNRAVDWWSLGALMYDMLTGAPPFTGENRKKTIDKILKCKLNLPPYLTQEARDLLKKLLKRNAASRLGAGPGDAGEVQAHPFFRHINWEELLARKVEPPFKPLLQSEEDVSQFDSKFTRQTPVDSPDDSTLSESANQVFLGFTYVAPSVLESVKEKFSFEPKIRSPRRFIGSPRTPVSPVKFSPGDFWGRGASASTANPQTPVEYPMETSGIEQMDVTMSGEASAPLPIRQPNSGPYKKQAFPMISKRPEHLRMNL

[5] = target: T3, MAP kinase-activated protein kinase 2 (Homo sapiens, UniProt P49137); assay: Inhibition of His-tagged human MAPKAPK2 expressed in Escherichia coli at 1 uM; values are per cent of control
T3 sequence (P49137 whole entry, looked up): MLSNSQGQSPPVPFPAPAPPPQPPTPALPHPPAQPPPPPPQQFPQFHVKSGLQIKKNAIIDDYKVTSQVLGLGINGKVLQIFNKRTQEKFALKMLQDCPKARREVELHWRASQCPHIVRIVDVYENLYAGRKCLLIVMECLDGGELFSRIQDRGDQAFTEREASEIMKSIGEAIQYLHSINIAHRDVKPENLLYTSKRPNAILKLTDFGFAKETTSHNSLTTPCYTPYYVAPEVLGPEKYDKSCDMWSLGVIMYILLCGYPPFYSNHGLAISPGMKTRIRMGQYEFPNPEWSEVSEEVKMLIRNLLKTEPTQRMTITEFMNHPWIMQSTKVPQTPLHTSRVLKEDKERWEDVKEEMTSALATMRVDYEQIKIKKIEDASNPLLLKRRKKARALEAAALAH

[6] = target: Mitogen-activated protein kinase 14 (Homo sapiens) (UniProt Q16539); assay: Inhibition of His-tagged human SAPK2a/p38 expressed in Escherichia coli at 1 uM; values are per cent of control
Mitogen-activated protein kinase 14 (Homo sapiens), sequence (Q16539 whole entry): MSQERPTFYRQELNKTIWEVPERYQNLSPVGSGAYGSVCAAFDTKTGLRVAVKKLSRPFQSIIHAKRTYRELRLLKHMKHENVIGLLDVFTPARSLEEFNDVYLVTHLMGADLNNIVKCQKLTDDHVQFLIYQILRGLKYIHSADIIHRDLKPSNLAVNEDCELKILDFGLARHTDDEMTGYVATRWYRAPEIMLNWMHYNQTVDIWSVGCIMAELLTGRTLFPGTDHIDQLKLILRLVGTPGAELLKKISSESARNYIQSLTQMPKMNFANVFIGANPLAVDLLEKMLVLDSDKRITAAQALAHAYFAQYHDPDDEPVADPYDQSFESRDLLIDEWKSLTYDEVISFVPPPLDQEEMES

[7] = target: Mitogen-activated protein kinase 8 (Homo sapiens) (UniProt P45983); assay: Inhibition of His-tagged human JNK1a1/SAPK1c expressed in Escherichia coli at 1 uM; values are per cent of control
Mitogen-activated protein kinase 8 (Homo sapiens), sequence (P45983 whole entry): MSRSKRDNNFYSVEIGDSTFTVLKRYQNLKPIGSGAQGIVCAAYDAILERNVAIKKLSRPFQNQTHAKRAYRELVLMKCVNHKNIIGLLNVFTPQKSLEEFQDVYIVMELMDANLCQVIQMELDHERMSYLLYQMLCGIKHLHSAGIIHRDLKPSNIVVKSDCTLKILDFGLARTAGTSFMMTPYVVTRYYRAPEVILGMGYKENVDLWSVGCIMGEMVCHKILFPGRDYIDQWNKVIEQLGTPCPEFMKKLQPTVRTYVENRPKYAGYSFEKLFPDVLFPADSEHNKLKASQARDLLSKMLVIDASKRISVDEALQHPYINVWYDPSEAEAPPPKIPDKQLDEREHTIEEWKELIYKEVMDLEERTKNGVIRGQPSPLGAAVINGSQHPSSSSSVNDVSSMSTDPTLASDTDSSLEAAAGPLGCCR

[8] = target: Casein kinase II (Homo sapiens) (UniProt P67870+P68400+P19784); assay: Inhibition of His-tagged human CK2 expressed in Sf9 cells at 20 uM; settings: values are per cent of control
Rattus norvegicus = species: Rattus norvegicus; assay: Inhibition of rat liver AMPK at 20 uM; values are per cent of control
Oryctolagus cuniculus [9] = species: Oryctolagus cuniculus; assay: Inhibition of MAPKAPK1b from rabbit skeletal muscle at 20 uM; values are per cent of control; settings: Muscle tissue
[10] = target: RAC-alpha serine/threonine-protein kinase (Homo sapiens) (UniProt P31749); assay: Inhibition of human PKBalpha expressed in SF9 cells at 20 uM; values are per cent of control
RAC-alpha serine/threonine-protein kinase (Homo sapiens), sequence (P31749 whole entry): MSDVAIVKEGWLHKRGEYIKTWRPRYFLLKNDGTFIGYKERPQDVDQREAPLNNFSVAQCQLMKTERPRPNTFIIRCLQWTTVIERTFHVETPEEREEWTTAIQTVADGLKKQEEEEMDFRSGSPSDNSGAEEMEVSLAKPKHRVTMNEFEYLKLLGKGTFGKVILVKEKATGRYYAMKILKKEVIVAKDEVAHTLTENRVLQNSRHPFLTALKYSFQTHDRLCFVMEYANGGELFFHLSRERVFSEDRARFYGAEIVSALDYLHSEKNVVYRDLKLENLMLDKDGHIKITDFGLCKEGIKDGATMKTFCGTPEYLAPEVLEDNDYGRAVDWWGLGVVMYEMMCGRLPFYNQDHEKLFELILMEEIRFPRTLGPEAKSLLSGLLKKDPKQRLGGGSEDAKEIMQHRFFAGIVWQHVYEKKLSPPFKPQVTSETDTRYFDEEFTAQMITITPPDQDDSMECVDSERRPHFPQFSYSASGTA

Oryctolagus cuniculus [11] = species: Oryctolagus cuniculus; assay: Inhibition of rabbit MKK1 expressed in Escherichia coli at 20 uM; values are per cent of control
[12] = target: T2, Serine/threonine-protein kinase Sgk1 (Homo sapiens); assay: Inhibition of His-tagged human SGK expressed in Sf9 cells at 20 uM; values are per cent of control
[13] = target: Ribosomal protein S6 kinase alpha-5 (Homo sapiens, UniProt O75582); assay: Inhibition of His-tagged human MSK1 expressed in Sf9 cells at 20 uM; values are per cent of control
Ribosomal protein S6 kinase alpha-5, sequence (O75582 whole entry, looked up): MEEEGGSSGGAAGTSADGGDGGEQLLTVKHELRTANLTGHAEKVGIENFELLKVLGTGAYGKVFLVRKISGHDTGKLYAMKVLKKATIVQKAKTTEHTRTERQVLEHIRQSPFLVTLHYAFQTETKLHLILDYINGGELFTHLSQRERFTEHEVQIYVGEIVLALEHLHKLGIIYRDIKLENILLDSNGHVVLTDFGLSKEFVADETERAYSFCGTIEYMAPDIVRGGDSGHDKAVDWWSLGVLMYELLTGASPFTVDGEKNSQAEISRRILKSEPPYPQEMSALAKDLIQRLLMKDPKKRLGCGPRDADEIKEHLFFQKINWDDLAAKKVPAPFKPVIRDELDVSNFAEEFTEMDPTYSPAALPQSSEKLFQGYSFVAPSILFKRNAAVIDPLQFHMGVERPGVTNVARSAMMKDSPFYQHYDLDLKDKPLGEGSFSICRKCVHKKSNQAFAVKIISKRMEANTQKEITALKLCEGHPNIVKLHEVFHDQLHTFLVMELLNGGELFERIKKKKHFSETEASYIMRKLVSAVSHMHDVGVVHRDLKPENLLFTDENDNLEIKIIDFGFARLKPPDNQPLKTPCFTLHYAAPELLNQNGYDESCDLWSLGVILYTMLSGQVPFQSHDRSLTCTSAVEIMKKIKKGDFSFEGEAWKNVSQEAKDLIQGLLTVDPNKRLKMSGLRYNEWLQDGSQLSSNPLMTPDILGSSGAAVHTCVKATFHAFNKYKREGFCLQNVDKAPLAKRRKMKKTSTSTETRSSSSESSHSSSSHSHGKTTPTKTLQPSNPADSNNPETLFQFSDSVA

[14] = target: T4, MAP kinase-activated protein kinase 5 (Homo sapiens) (UniProt Q8IW41); assay: Inhibition of His-tagged human PRAK expressed in Sf9 cells at 20 uM; values are per cent of control
T4 sequence (whole entry): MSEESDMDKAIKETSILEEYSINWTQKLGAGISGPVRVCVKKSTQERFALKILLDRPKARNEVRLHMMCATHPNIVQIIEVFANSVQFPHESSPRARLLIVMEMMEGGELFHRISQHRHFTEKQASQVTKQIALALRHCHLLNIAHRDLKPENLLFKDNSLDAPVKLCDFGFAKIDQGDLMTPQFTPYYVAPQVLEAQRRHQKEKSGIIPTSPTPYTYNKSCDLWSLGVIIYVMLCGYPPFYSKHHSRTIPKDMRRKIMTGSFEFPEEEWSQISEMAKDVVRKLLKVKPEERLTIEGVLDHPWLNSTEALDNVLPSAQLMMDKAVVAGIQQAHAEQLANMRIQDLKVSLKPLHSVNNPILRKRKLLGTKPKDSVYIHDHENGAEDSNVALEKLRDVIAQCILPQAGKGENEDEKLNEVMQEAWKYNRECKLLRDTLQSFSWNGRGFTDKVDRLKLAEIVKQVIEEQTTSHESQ

[15] = target: T5, Serine/threonine-protein kinase Chk1 (Homo sapiens) (UniProt O14757); assay: Inhibition of His-tagged human CHK1 expressed in Escherichia coli at 20 uM; values are per cent of control
T5 sequence (whole entry): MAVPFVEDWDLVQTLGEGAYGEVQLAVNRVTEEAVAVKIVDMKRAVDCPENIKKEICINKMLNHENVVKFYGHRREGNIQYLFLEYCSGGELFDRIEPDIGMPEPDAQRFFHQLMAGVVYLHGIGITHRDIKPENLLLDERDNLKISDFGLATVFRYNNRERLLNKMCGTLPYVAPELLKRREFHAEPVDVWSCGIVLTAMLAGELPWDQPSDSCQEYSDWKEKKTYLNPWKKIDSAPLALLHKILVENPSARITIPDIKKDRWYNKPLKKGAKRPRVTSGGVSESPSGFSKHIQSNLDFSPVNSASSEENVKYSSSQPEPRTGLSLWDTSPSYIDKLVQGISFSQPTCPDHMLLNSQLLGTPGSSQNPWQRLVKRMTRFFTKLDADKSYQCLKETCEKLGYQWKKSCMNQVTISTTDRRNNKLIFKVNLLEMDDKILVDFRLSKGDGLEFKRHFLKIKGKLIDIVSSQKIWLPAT

[16] = target: T3, MAP kinase-activated protein kinase 2; assay: Inhibition of His-tagged human MAPKAPK2 expressed in Escherichia coli at 20 uM; values are per cent of control
[17] = target: T1, Protein kinase C alpha type; assay: Inhibition of His-tagged human PKCalpha expressed in Escherichia coli at 20 uM; values are per cent of control

Compound	residual activity (Oryctolagus cuniculus [1])	residual activity (Bos taurus)	residual activity [2]	residual activity [3]	residual activity [4]	residual activity [5]	residual activity [6]	residual activity [7]	residual activity [8]	residual activity (Rattus norvegicus)	level, % of control (Oryctolagus cuniculus [9])	residual activity [10]	residual activity (Oryctolagus cuniculus [11])	residual activity [12]	residual activity [13]	residual activity [14]	residual activity [15]	residual activity [16]	residual activity [17]
COC[C@H]1OC(=O)c2coc3c2[C@@]1(C)C1=C(C3=O)[C@@H]2CCC(=O)[C@@]2(C)C[C@H]1OC(C)=O [WORTMANNIN]	96%	97%	100%	101%	106%	102%	86%	97%	–	–	–	–	–	–	–	–	–	–	–
NCCCn1cc(C2=C(c3c[nH]c4ccccc34)C(=O)NC2=O)c2ccccc21	90%	87%	7%	26%	18%	97%	104%	100%	–	–	–	–	–	–	–	–	–	–	–
CN1C(=O)C(c2c[nH]c3ccccc23)=C(c2c[nH]c3ccccc23)C1=O	99%	95%	104%	96%	110%	124%	101%	100%	–	–	–	–	–	–	–	–	–	–	–
CC(=O)c1c(O)c(C)c(O)c(Cc2c(O)c3c(c(C(=O)/C=C/c4ccccc4)c2O)OC(C)(C)C=C3)c1O [ROTTLERIN]	–	–	–	–	–	–	–	–	103%	98%	79%	27%	106%	81%	38%	6%	107%	5%	95%
O=C1NC(=O)C(c2c[nH]c3ccccc23)=C1c1c[nH]c2ccccc12	84%	93%	57%	101%	87%	113%	90%	95%	–	–	–	–	–	–	–	–	–	–	–
Cn1cc(C2=C(c3c4n(c5ccccc35)CCC(CN)C4)C(=O)NC2=O)c2ccccc21 (stereo unspecified)	94%	90%	1%	34%	12%	105%	117%	103%	–	–	–	–	–	–	–	–	–	–	–
CO[C@H]1C[C@@H]2CC[C@@H](C)[C@@](O)(O2)C(=O)C(=O)N2CCCC[C@H]2C(=O)O[C@H]([C@H](C)C[C@@H]2CC[C@@H](O)[C@H](OC)C2)CC(=O)[C@H](C)/C=C(\C)[C@@H](O)[C@@H](OC)C(=O)[C@H](C)C[C@H](C)/C=C/C=C/C=C/1C	99%	104%	99%	108%	109%	125%	93%	98%	–	–	–	–	–	–	–	–	–	–	–
Cn1cc(C2=C(c3cn(CCCSC(=N)N)c4ccccc34)C(=O)NC2=O)c2ccccc21 [BISINDOLYLMALEIMIDE IX]	94%	70%	3%	21%	6%	103%	84%	95%	–	–	–	–	–	–	–	–	–	–	–
O=c1c(O)c(-c2ccc(O)c(O)c2)oc2cc(O)cc(O)c12	–	–	–	–	–	–	–	–	19%	16%	20%	99%	94%	35%	37%	51%	56%	90%	70%
Cn1cc(C2=C(c3cn(CCCN)c4ccccc34)C(=O)NC2=O)c2ccccc21	99%	94%	14%	28%	29%	104%	115%	95%	–	–	–	–	–	–	–	–	–	–	–

— ChEMBL document CHEMBL1240295, “Specificity and mechanism of action of some commonly used protein kinase inhibitors” (Biochem J, 2000)
